Assay: Level reaching in blood plasma of rat or human was determined
Assay type: ADME, cell-free

Row | SMILES | Activity [µM]
1 | CCCCC/C=C/CC1OC1C/C=C\C/C=C\CCCC(=O)O (stereo not given) | 0.5
2 | CCCCCC(O)C(O)C/C=C\C/C=C\C/C=C\CCCC(=O)O (stereo not given) | 0.5
3 | CCCCC/C=C/C/C=C\C/C=C\C/C=C\CCCC(=O)O | 0.5
4 | CCCCCC1OC1C/C=C\C/C=C\C/C=C\CCCC(=O)O (trans isomer) | 0.5
5 | CCCCC/C=C/CC(O)C(O)C/C=C\C/C=C\CCCC(=O)O (trans isomer) | 0.5

From ChEMBL document CHEMBL1146664, “Cytochrome P450/NADPH-dependent formation of trans epoxides from trans-arachidonic acids” (Bioorg Med Chem Lett, 2004)
